# Measured values taken from PubChem BioAssay AID2060609 (Molecular Pharmacology Branch, DTP, NCI, 2025).
# Test system: 855422-203-R-J1-PDC complex spheroids, viability
# Experiment: Anticancer human tumor 855422-203-R-J1-PDC patient-derived bladder carcinoma cell line growth inhibition [CLK]
# Conditions: for IC50: curve of first compound; for viability, T/C: stronger effect = lower value
# Source text: A high-throughput screen of multi-cell type tumor spheroids was designed to identify active combinations of […] and targeted small molecules. Complex spheroids include a stromal component modeled by human endothelial cells (HUVEC) and fibroblasts modeled by human mesenchymal stem cells (MSCs). The concentration ranges selected for each drug and investigational agent were based upon clinically achievable concentrations if the clinical Cmax of the agent was known.
# Compounds. The drugs and investigational agents: cirtuvivint (SM08502; NSC835563), CC-671 (NSC850746), vemurafenib (NSC761431), tapotoclax (NSC804041), sotorasib (NSC818433), adagrasib (NSC831453), MRTX-1133 (NSC836407), BAY2416964 (NSC825713), copanlisib (NSC816437), inavolisib (NSC800729), abemaciclib (NSC768073), osimertinib (NSC779217), entinostat (NSC756642), eltanexor (KPT-8602, NSC794443), venetoclax (NSC766270), ceralasertib (NSC777638), bortezomib (NSC756655), olaparib (NSC753686), talazoparib (NSC767125), alisertib (NSC759677), peposertib (NSC802822), gemcitabine (NSC613327), 5-fluorouracil (NSC19893), SN-38 (NSC673596), oxaliplatin (NSC266046), paclitaxel (NSC125973), and doxorubicin (NSC123127), were obtained from the National Cancer Institute (NCI) Developmental Therapeutics Program Chemical Repository. The FDA-approved anticancer drug set is available from the Developmental Therapeutics Program at https://dtp.cancer.gov/organization/dscb/obtaining/available plates.htm. […] The stock solutions were prepared in dimethyl sulfoxide (DMSO, Sigma-Aldrich, St. Louis, MO, cat. D2650), except for the platinum complexes which were prepared in saline (Quality Biological, Gaithersburg, MD, cat. 114-055-101), at 800-fold the tested concentration and stored at -70 degrees C prior to their use. All drugs and investigational agents were tested over a range starting from a high concentration at or near the clinical Cmax and decreasing in half-log increments. If the clinical Cmax for an agent had not been determined, the highest concentration tested was 10 microM.
# Cell Culture. All cells were maintained in an incubator at 37 degrees C and 5% CO2 with 95% humidity. The PDC lines were cultured according to standard operating procedures established by the NCI PDMR. Briefly, all PDCs were thawed and cultured in Matrigel-coated flasks prepared with a working solution of 1X Ham's F-12 nutrient mix, without supplementation (Invitrogen, Waltham, MA, cat. 11765054), 100 U/mL penicillin-streptomycin (Invitrogen, cat. 15140122), and 2.5% Matrigel (Corning Inc., Corning, NY, cat. 354248) for the first three passages. The 947758-054-R-J2-PDC line was cultured in 6B/Colon 1A media, which includes advanced DMEM/F-12 (Thermo Fisher Scientific, cat. 12634028), 10 mM HEPES (Thermo Fisher Scientific, cat. 15630080), 1X GlutaMAX supplement (Thermo Fisher Scientific, cat. 35050061), 0.1 mg/mL primocin (InvivoGen, cat. ant-pm-2), 10% defined fetal bovine serum, heat inactivated (HyClone Laboratories Inc., cat. SH30070.03HI), 1.25 mM N-Acetyl-L-cysteine (Sigma-Aldrich, cat. A9165), 10 mM nicotinamide (Sigma-Aldrich, cat. N0636), 1X B-27 supplement (Thermo Fisher Scientific, cat. 17504044), 1X N-2 supplement (Thermo Fisher Scientific, cat. 17502048), and 10 microM Y-27632 dihydrochloride (Tocris Bioscience, cat. 1254). The 876862-298-R-J1-PDC was cultured in 6E media, which includes all 6B/Colon 1A media components plus 50% L-WRN conditioned media (ATCC, cat. CRL-3276), 50 ng/mL recombinant human EGF recombinant protein (hEGF; Thermo Fisher Scientific, cat. PHG0311), 10 ng/mL recombinant human fibroblast growth factor 10 (hGFG-10; PeproTech, cat. 100-26), 1 ng/mL recombinant human fibroblast growth factor 2 (hFGF-2; PeproTech, cat. 100-18B), and 1 µM prostaglandin E2 (PGE2; Tocris, cat. 2296). The 227483-062-R1-J1-PDC line was cultured in Panc media, containing all 6E components except hFGF-2, with the addition of 500 nM SB-431542 (Selleckchem, cat. S1067) and 10 nM gastrin (Tocris, cat. 3006). […]
# 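Further: spheroids exposed to drugs for seven days before readout.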
# 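Wherever viability, T/C is given: 100% = DMSO vehicle control wells.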
compound,measurement,setting,value
C=C(F)C(=O)N1CCN(c2nc(OCC3CCCN3C)nc3c2CCN(c2cccc4cccc(Cl)c24)C3)CC1CC#N (configuration not stated) + CN1CCN(c2cc(C(=O)Nc3cc4cc(-c5cnn(C)c5)ccc4cn3)ccn2)CC1,IC50,second compound 0.0316 µM,2460 nM
same,IC50,second compound 0.1 µM,1980 nM
same,IC50,second compound 0.316 µM,< 31.6 nM
same,IC50,second compound 1 µM,< 31.6 nM
same,IC50,second compound 3.16 µM,< 31.6 nM
same,IC50,second compound 10 µM,< 31.6 nM
same,"viability, T/C","second compound 0.0316 µM, first compound 0.0316 µM",108%
same,"viability, T/C","second compound 0.0316 µM, first compound 0.1 µM",110%
same,"viability, T/C","second compound 0.0316 µM, first compound 0.316 µM",122%
same,"viability, T/C","second compound 0.0316 µM, first compound 1 µM",115%
same,"viability, T/C","second compound 0.0316 µM, first compound 3.16 µM",32%
same,"viability, T/C","second compound 0.0316 µM, first compound 10 µM",0.22%
same,"viability, T/C","second compound 0.1 µM, first compound 0.0316 µM",89.1%
same,"viability, T/C","second compound 0.1 µM, first compound 0.1 µM",86%
same,"viability, T/C","second compound 0.1 µM, first compound 0.316 µM",87.3%
same,"viability, T/C","second compound 0.1 µM, first compound 1 µM",95.1%
same,"viability, T/C","second compound 0.1 µM, first compound 3.16 µM",22.8%
same,"viability, T/C","second compound 0.1 µM, first compound 10 µM",0.8%
same,"viability, T/C","second compound 0.316 µM, first compound 0.0316 µM",14.2%
same,"viability, T/C","second compound 0.316 µM, first compound 0.1 µM",14.4%
same,"viability, T/C","second compound 0.316 µM, first compound 0.316 µM",14.8%
same,"viability, T/C","second compound 0.316 µM, first compound 1 µM",14.6%
same,"viability, T/C","second compound 0.316 µM, first compound 3.16 µM",4.45%
same,"viability, T/C","second compound 0.316 µM, first compound 10 µM",0.07%
same,"viability, T/C","second compound 1 µM, first compound 0.0316 µM",0.29%
same,"viability, T/C","second compound 1 µM, first compound 0.1 µM",0.34%
same,"viability, T/C","second compound 1 µM, first compound 0.316 µM",0.28%
same,"viability, T/C","second compound 1 µM, first compound 1 µM",0.26%
same,"viability, T/C","second compound 1 µM, first compound 3.16 µM",0.12%
same,"viability, T/C","second compound 1 µM, first compound 10 µM",1.08%
same,"viability, T/C","second compound 3.16 µM, first compound 0.0316 µM",0.68%
same,"viability, T/C","second compound 3.16 µM, first compound 0.1 µM",0.91%
same,"viability, T/C","second compound 3.16 µM, first compound 0.316 µM",0.57%
same,"viability, T/C","second compound 3.16 µM, first compound 1 µM",0.77%
same,"viability, T/C","second compound 3.16 µM, first compound 3.16 µM",1.08%
same,"viability, T/C","second compound 3.16 µM, first compound 10 µM",0.11%
same,"viability, T/C","second compound 10 µM, first compound 0.0316 µM",0.54%
same,"viability, T/C","second compound 10 µM, first compound 0.1 µM",0.51%
same,"viability, T/C","second compound 10 µM, first compound 0.316 µM",0.41%
same,"viability, T/C","second compound 10 µM, first compound 1 µM",0.42%
same,"viability, T/C","second compound 10 µM, first compound 3.16 µM",0.61%
same,"viability, T/C","second compound 10 µM, first compound 10 µM",0.22%
